Assay results reported in patent publication US20100048530A1, “New 2-Azetidinone Derivatives As Cholesterol Absorption Inhibitors For The Treatment Of Hyperlipidaemic Conditions” (ASTRAZENECA AB, priority 2005, published 2010).

Test system: C57BL/6 female mice
Experiment: In vivo testing of cholesterol absorption inhibitors (A)
Conditions: 0.2 μmol/kg, gavage, procedure A
Protocol: In Vivo Testing of Cholesterol Absorption Inhibitors (A)
C57BL/6 female mice were maintained on regular chow diet and housed in individual cages to collect faeces. Mice were fasted for 3 hours and then gavaged with vehicle or compound. Half an hour later the mice were gavaged with radiolabelled cholesterol. Six hours after the ^14C-cholesterol gavage blood samples were taken via the tail and plasma prepared to determine how much cholesterol were absorbed. 24 hours after the gavage of ^14C-cholesterol the mice were bled and plasma were prepared for analysis. Faeces were collected for 24 hours to assess absorption efficiency.

SMILES: O=C(O)CNC(=O)[C@@H](CC1CCCCC1)NC(=O)CNC(=O)COc1ccc([C@@H]2[C@@H](SCC(O)c3ccc4c(c3)OCCO4)C(=O)N2c2ccc(F)cc2)cc1 (stereo partly drawn) [Example 1, N-({4-[(2R,3R)-3-{[2-(2,3-dihydro-1,4-benzodioxin-6-yl)-2-hydroxyethyl]thio}-1-(4-fluorophenyl)-4-oxoazetidin-2-yl]phenoxy}acetyl)glycyl-3-cyclohexyl-D-alanylglycine]
- inhibition of 14C-cholesterol absorption: 43%
